Laboratory results as given in patent US20170190671A1, “BIS(ARYL)CATECHOL DERIVATIVES AS HERBICIDES” (E I DU PONT DE NEMOURS AND COMPANY, priority 2014, published 2017).

Legend:
Test in all cases: Test C preemergence
Format in all cases: in vivo
[1] = test system: Italian ryegrass (Lolium multiflorum); details: Lolium multiflorum, pre-emergence, 336 h, preemergence, scale 0 to 100, read-out: Plant response rating, Ryegrass, Italian
In short: (§1)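 Greenhouse test, preemergence on seeded soil or postemergence on 1- to 4-leaf plants. Response is a visual 0-100 rating versus controls, taken 13-15 days after treatment.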

[2] = test system: barnyardgrass (Echinochloa crus-galli); details: Echinochloa crus-galli, pre-emergence, preemergence, scale 0 to 100, read-out: Plant response rating, Barnyardgrass
In short: as §1

[3] = test system: blackgrass (Alopecurus myosuroides); details: Alopecurus myosuroides, pre-emergence, 336 h, preemergence, scale 0 to 100, read-out: Plant response rating, Blackgrass
In short: as §1

corn (Zea mays) = details: Zea mays, pre-emergence, 336 h, preemergence, scale 0 to 100
In short: as §1

[4] = test system: galium (catchweed bedstraw, Galium aparine); details: Galium, pre-emergence, 336 h, preemergence, scale 0 to 100, read-out: Plant response rating, Galium
In short: as §1

[5] = test system: giant foxtail (Setaria faberii); details: Setaria faberi, pre-emergence, 336 h, preemergence, scale 0 to 100, read-out: Plant response rating, Foxtail, Giant
In short: as §1

[6] = test system: lambsquarters (Chenopodium album); details: Chenopodium album, pre-emergence, 336 h, preemergence, scale 0 to 100, read-out: Plant response rating, Lambsquarters
In short: as §1

[7] = test system: large (Lg) crabgrass (Digitaria sanguinalis); details: Digitaria sanguinalis, pre-emergence, 336 h, preemergence, scale 0 to 100, read-out: Plant response rating, Crabgrass, Large
In short: as §1

[8] = test system: oilseed rape (Brassica napus); details: Brassica napus, pre-emergence, preemergence, scale 0 to 100, read-out: Plant response rating, Oilseed Rape
In short: as §1

[9] = test system: ragweed (common ragweed, Ambrosia elatior); details: Ambrosia artemisiifolia, pre-emergence, 336 h, preemergence, scale 0 to 100, read-out: Plant response rating, Ragweed
In short: as §1

soybean (Glycine max) = details: Glycine max, pre-emergence, preemergence, scale 0 to 100, read-out: Plant response rating, Soybean
In short: as §1

[10] = test system: velvetleaf (Abutilon theophrasti); details: Abutilon theophrasti, pre-emergence, preemergence, scale 0 to 100, read-out: Plant response rating, Velvetleaf
In short: as §1

[11] = test system: waterhemp (common waterhemp, Amaranthus rudis); details: Amaranthus tuberculatus, pre-emergence, preemergence, scale 0 to 100, read-out: Plant response rating, Waterhemp
In short: as §1

[12] = test system: winter wheat (Triticum aestivum); details: Triticum aestivum, pre-emergence, 336 h, preemergence, scale 0 to 100, read-out: Plant response rating, Wheat
In short: as §1

[13] = test system: yellow nutsedge (Cyperus esculentus); details: Cyperus, pre-emergence, 336 h, preemergence, scale 0 to 100, read-out: Plant response rating, Nutsedge, Yellow
In short: as §1

Fc1cccc(Oc2ncc(Cl)cn2)c1Oc1ncc(Br)cn1 [Compound 27, 5-bromo-2-[2-fluoro-6-[(5-chloro-2-pyrimidinyl)oxy]phenoxy]pyrimidine]
pest or weed control at 31 g/ha ([1]; 31 g ai/ha): 10%
pest or weed control at 62 g/ha ([1]; 62 g ai/ha): 55%
pest or weed control at 125 g/ha ([1]; 125 g ai/ha): 80%
pest or weed control at 250 g/ha ([1]; 250 g ai/ha): 95%
pest or weed control at 31 g/ha ([2]; 31 g ai/ha): 55%
pest or weed control at 62 g/ha ([2]; 62 g ai/ha): 100%
pest or weed control at 125 g/ha ([2]; 125 g ai/ha): 100%
pest or weed control at 250 g/ha ([2]; 250 g ai/ha): 100%
pest or weed control at 31 g/ha ([3]; 31 g ai/ha): 15%
pest or weed control at 62 g/ha ([3]; 62 g ai/ha): 60%
pest or weed control at 125 g/ha ([3]; 125 g ai/ha): 90%
Corn plant response rating (crop injury, 0 = no effect, 100 = complete kill) at 31 g/ha (corn (Zea mays); 31 g ai/ha): 10%
Corn plant response rating (crop injury, 0 = no effect, 100 = complete kill) at 62 g/ha (corn (Zea mays); 62 g ai/ha): 45%
Corn plant response rating (crop injury, 0 = no effect, 100 = complete kill) at 125 g/ha (corn (Zea mays); 125 g ai/ha): 60%
pest or weed control at 31 g/ha ([4]; 31 g ai/ha): 100%
pest or weed control at 62 g/ha ([4]; 62 g ai/ha): 100%
pest or weed control at 125 g/ha ([4]; 125 g ai/ha): 100%
pest or weed control at 31 g/ha ([5]; 31 g ai/ha): 80%
pest or weed control at 62 g/ha ([5]; 62 g ai/ha): 100%
pest or weed control at 125 g/ha ([5]; 125 g ai/ha): 100%
pest or weed control at 31 g/ha ([6]; 31 g ai/ha): 80%
pest or weed control at 62 g/ha ([6]; 62 g ai/ha): 85%
pest or weed control at 125 g/ha ([6]; 125 g ai/ha): 100%
pest or weed control at 31 g/ha ([7]; 31 g ai/ha): 98%
pest or weed control at 62 g/ha ([7]; 62 g ai/ha): 98%
pest or weed control at 125 g/ha ([7]; 125 g ai/ha): 100%
plant injury at 31 g/ha ([8]; 31 g ai/ha): 85%
plant injury at 62 g/ha ([8]; 62 g ai/ha): 100%
plant injury at 125 g/ha ([8]; 125 g ai/ha): 100%
plant injury at 250 g/ha ([8]; 250 g ai/ha): 100%
pest or weed control at 31 g/ha ([9]; 31 g ai/ha): 20%
pest or weed control at 62 g/ha ([9]; 62 g ai/ha): 60%
pest or weed control at 125 g/ha ([9]; 125 g ai/ha): 70%
pest or weed control at 250 g/ha ([9]; 250 g ai/ha): 85%
plant injury at 31 g/ha (soybean (Glycine max); 31 g ai/ha): 40%
plant injury at 250 g/ha (soybean (Glycine max); 250 g ai/ha): 90%
pest or weed control at 31 g/ha ([10]; 31 g ai/ha): 60%
pest or weed control at 62 g/ha ([10]; 62 g ai/ha): 95%
pest or weed control at 125 g/ha ([10]; 125 g ai/ha): 100%
pest or weed control at 250 g/ha ([10]; 250 g ai/ha): 100%
pest or weed control at 31 g/ha ([11]; 31 g ai/ha): 100%
pest or weed control at 62 g/ha ([11]; 62 g ai/ha): 100%
pest or weed control at 125 g/ha ([11]; 125 g ai/ha): 100%
pest or weed control at 250 g/ha ([11]; 250 g ai/ha): 100%
plant injury at 31 g/ha ([12]; 31 g ai/ha): 0%
plant injury at 62 g/ha ([12]; 62 g ai/ha): 5%
plant injury at 125 g/ha ([12]; 125 g ai/ha): 40%
plant injury at 250 g/ha ([12]; 250 g ai/ha): 85%
pest or weed control at 31 g/ha ([13]; 31 g ai/ha): 0%
pest or weed control at 62 g/ha ([13]; 62 g ai/ha): 0%
pest or weed control at 125 g/ha ([13]; 125 g ai/ha): 55%
